Measurements published in patent US20230339890A1, “AMINO ALCOHOL COMPOUNDS AND USES THEREOF” (Kineta, Inc., priority 2020, published 2023).

Target: Recombinant human CYP51A1 (lanosterol-14a-demethylase) (Homo sapiens (Human), UniProt Q16850)
Test: Inhibition of CYP51A1, fluorescent substrate BOMCC
Format: biochemical
Conditions: recombinant human CYP51A1 coexpressed with CYP reductase in bacterial membranes, 8-point concentration-response, read-out: CYP51 IC50
From the text: Method: Recombinant human CYP51A1 (lanosterol-14a-demethylase) enzyme was coexpressed with CYP reductase in bacterial membranes and the fluorescent substrate BOMCC (a nonnatural substrate that causes increases in fluorescence upon CYP51A1-dependent demethylation) was used to obtain 8-point dose concentration-response curves for each compound.

Sequence of Recombinant human CYP51A1 (lanosterol-14a-demethylase) (Q16850 whole entry): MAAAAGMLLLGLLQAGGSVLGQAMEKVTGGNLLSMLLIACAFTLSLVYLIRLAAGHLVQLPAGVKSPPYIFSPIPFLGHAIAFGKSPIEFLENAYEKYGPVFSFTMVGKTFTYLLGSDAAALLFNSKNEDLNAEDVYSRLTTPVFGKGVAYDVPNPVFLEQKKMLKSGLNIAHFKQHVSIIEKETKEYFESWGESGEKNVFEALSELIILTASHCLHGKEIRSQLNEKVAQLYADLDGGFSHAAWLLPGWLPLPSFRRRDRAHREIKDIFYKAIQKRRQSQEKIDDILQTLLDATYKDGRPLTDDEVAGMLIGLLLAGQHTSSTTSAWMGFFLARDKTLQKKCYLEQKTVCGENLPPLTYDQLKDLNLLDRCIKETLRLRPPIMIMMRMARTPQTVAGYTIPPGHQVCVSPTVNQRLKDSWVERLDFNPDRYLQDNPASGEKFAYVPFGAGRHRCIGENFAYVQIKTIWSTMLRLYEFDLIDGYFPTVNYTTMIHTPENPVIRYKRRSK

| Compound | IC50 |
| --- | --- |
| CCCN(CC(O)c1cccnn1)C(=O)Cc1ccc(Cl)c(Cl)c1 (single isomer, unassigned) [compound 35, 2-(3,4-dichlorophenyl)-N-[2-hydroxy-2-pyridazin-3-yl-ethyl]-N-propyl-acetamide] | 100 to 1000 nM |
| CCCN(CC(O)c1cccnn1)C(=O)Cc1ccc(Cl)c(Cl)c1 (single isomer, unassigned) [compound 36, 2-(3,4-dichlorophenyl)-N-[2-hydroxy-2-pyridazin-3-yl-ethyl]-N-propyl-acetamide] | > 1000 nM |
| CCCN(CC(O)c1cnccn1)C(=O)C1Cc2cc(Cl)c(Cl)cc2C1 (single isomer, unassigned) [compound 41, 5,6-dichloro-N-(2-hydroxy-2-pyrazin-2-yl-ethyl)-N-propyl-indane-2-carboxamide] | > 1000 nM |
| CCCN(CC(O)c1cnccn1)C(=O)C1Cc2cc(Cl)c(Cl)cc2C1 (single isomer, unassigned) [compound 42, 5,6-dichloro-N-(2-hydroxy-2-pyrazin-2-yl-ethyl)-N-propyl-indane-2-carboxamide] | ≤ 100 nM |
| CCCN(CC(O)c1cccnn1)C(=O)Cc1ccc(C#N)c(Cl)c1 (single isomer, unassigned) [compound 53, 2-(3-chloro-4-cyanophenyl)-N-(2-hydroxy-2-pyridazin-3-yl-ethyl)-N-propyl-acetamide] | 100 to 1000 nM |
| CCCN(CC(O)c1cccnn1)C(=O)Cc1ccc(C#N)c(Cl)c1 (single isomer, unassigned) [compound 54, 2-(3-chloro-4-cyanophenyl)-N-(2-hydroxy-2-pyridazin-3-yl-ethyl)-N-propyl-acetamide] | > 1000 nM |
| O=C(Cc1ccc(C(F)(F)F)nc1)N(CC(O)c1cccnn1)C1CCC1 (single isomer, unassigned) [compound 61, N-cyclobutyl-N-(2-hydroxy-2-pyridazin-3-yl-ethyl)-2-[6-(trifluoromethyl)-3-pyridyl]acetamide] | 100 to 1000 nM |
| O=C(Cc1ccc(C(F)(F)F)nc1)N(CC(O)c1cccnn1)C1CCC1 (single isomer, unassigned) [compound 62, N-cyclobutyl-N-(2-hydroxy-2-pyridazin-3-yl-ethyl)-2-[6-(trifluoromethyl)-3-pyridyl]acetamide] | > 1000 nM |
| CCCN(CC(O)c1cccnn1)C(=O)Cc1ccc(C(F)(F)F)nc1 (single isomer, unassigned) [compound 68, N-[2-hydroxy-2-pyridazin-3-yl-ethyl]-N-propyl-2-[6-(trifluoromethyl)-3-pyridyl]acetamide] | > 1000 nM |
| CCCN(CC(O)c1cccnn1)C(=O)Cc1ccc(C(F)(F)F)nc1 (single isomer, unassigned) [compound 69, N-[2-hydroxy-2-pyridazin-3-yl-ethyl]-N-propyl-2-[6-(trifluoromethyl)-3-pyridyl]acetamide] | ≤ 100 nM |
| Cc1ccncc1C(O)CN(CC1COC1)C(=O)Cc1ccc(C(F)(F)F)nc1 (single isomer, unassigned) [compound 88, N-[2-hydroxy-2-(4-methyl-3-pyridyl)ethyl] -N-(oxetan-3-ylmethyl)-2-[6-(trifluoromethyl)-3-pyridyl]acetamide] | ≤ 100 nM |
| CCCN(CC(O)c1cccnc1)C(=O)Cc1ccc(Cl)c(Cl)c1 (centres unmarked) [compound 1, 2-(3,4-dichlorophenyl)-N-[2-hydroxy-2-(3-pyridyl)ethyl]-N-propyl-acetamide] | ≤ 100 nM |
| CCCN(CC(O)c1cccnc1)C(=O)Cc1ccc2ccccc2c1 (centres unmarked) [compound 2, N-[2-hydroxy-2-(3-pyridyl)ethyl]-2-(2-naphthyl)-N-propyl-acetamide] | ≤ 100 nM |
| CCC(=O)N(CCc1ccc2ccccc2c1)CC(O)c1cccnc1 (centres unmarked) [compound 3] | 100 to 1000 nM |
| CCC(=O)N(CCc1ccc(Cl)c(Cl)c1)CC(O)c1cccnc1 (centres unmarked) [compound 4] | 100 to 1000 nM |
| CCCN(CC(O)c1cccnc1)C(=O)Cc1ccc(OC)c(OC)c1 (centres unmarked) [compound 5, 2-(3,4-dimethoxyphenyl)-N-[2-hydroxy-2-(3-pyridyl)ethyl]-N-propyl-acetamide] | > 1000 nM |
| CCCN(C[C@H](O)c1cccnc1)C(=O)Cc1ccc(Cl)c(Cl)c1 [compound 6, 2-(3,4-dichlorophenyl)-N-[(2R)-2-hydroxy-2-(3-pyridyl)ethyl]-N-propyl-acetamide] | ≤ 100 nM |
| CCCN(C[C@@H](O)c1cccnc1)C(=O)Cc1ccc2ccccc2c1 [compound 7, N-[(2S)-2-hydroxy-2-(3-pyridyl)ethyl]-2-(2-naphthyl)-N-propyl-acetamide] | ≤ 100 nM |
| CCCN(C[C@@H](O)c1cccnc1)C(=O)Cc1ccc(Cl)c(Cl)c1 [compound 8, 2-(3,4-dichlorophenyl)-N-[(2S)-2-hydroxy-2-(3-pyridyl)ethyl]-N-propyl-acetamide] | ≤ 100 nM |
| CC1(N(CC(O)c2cccnc2)C(=O)Cc2ccc(Cl)c(Cl)c2)CC1 (centres unmarked) [compound 9, 2-(3,4-dichlorophenyl)-N-[2-hydroxy-2-(3-pyridyl)ethyl]-N-(1-methylcyclopropyl)a cetamide] | 100 to 1000 nM |
| CCCN(CC(O)c1cccnc1)S(=O)(=O)Cc1ccc(Cl)c(Cl)c1 (centres unmarked) [compound 10, 1-(3,4-dichlorophenyl)-N-[2-hydroxy-2-(3-pyridyl)ethyl]-N-propyl-methanesulfonamide] | > 1000 nM |

| Compound | IC50 |
| --- | --- |
| CCCN(C[C@@H](O)c1cccnc1)C(=O)C1Cc2cc(Cl)c(Cl)cc2C1 [compound 11] | ≤ 100 nM |
| CCCN(C[C@@H](O)c1cccnc1)C(=O)Cc1ccc(OC)c(Cl)c1 [compound 12, 2-(3-chloro-4-methoxy-phenyl)-N-[(2S)-2-hydroxy-2-(3-pyridyl)ethyl]-N-propyl-acetamide] | 100 to 1000 nM |
| CCCN(CC(O)c1cncnc1)C(=O)Cc1ccc(Cl)c(Cl)c1 (centres unmarked) [compound 13, 2-(3,4-dichlorophenyl)-N-(2-hydroxy-2-pyrimidin-5-yl-ethyl)-N-propyl-acetamide] | > 1000 nM |
| CCCN(C[C@@H](O)c1cccnc1)C(=O)Cc1ccc(Cl)cn1 [compound 14, 2-(5-chloro-2-pyridyl)-N-[(2S)-2-hydroxy-2-(3-pyridyl)ethyl]-N-propyl-acetamide] | > 1000 nM |
| CCCN(C[C@@H](O)c1cccnc1)C(=O)Cc1ccc(C)nc1 [compound 15, N-[(2S)-2-hydroxy-2-(3-pyridyl)ethyl]-2-(6-methyl-3-pyridyl)-N-propyl-acetamide] | > 1000 nM |
| CCCN(C[C@@H](O)c1cccnc1)C(=O)Cc1ccc(C)c(Cl)c1 [compound 16, 2-(3-chloro-4-methyl-phenyl)-N-[(2S)-2-hydroxy-2-(3-pyridyl)ethyl]-N-propyl-acetamide] | ≤ 100 nM |
| CCCN(C[C@@H](O)c1cccnc1)C(=O)Cc1ccc(C(F)(F)F)nc1 [compound 17, N-[(2S)-2-hydroxy-2-(3-pyridyl)ethyl]-N-propyl-2-[6-(trifluoromethyl)-3-pyridyl]acetamide] | ≤ 100 nM |
| CC(C)N(C[C@@H](O)c1cccnc1)C(=O)Cc1ccc(Cl)c(Cl)c1 [compound 18, 2-(3,4-dichlorophenyl) -N-[(2S)-2-hydroxy-2-(3-pyridyl)ethyl]-N-isopropyl-acetamide] | ≤ 100 nM |
| CCCN(CC(O)c1ccnnc1)C(=O)Cc1ccc(Cl)c(Cl)c1 (centres unmarked) [compound 19] | > 1000 nM |
| CCN(C[C@@H](O)c1cccnc1)C(=O)Cc1ccc(Cl)c(Cl)c1 [compound 20, 2-(3,4-dichlorophenyl) -N-ethyl-N-[(2S)-2-hydroxy-2-(3-pyridyl)ethyl]ac etamide] | 100 to 1000 nM |
| CCCN(C[C@@H](O)c1cccnc1)C(=O)Cc1ccc(OC(F)(F)F)c(Cl)c1 [compound 21, 2-[3-chloro-4-(trifluoromethoxy)phenyl]-N-[(2S)-2-hydroxy-2-(3-pyridyl)ethyl]-N-propyl-acetamide] | ≤ 100 nM |
| CCC(=O)N(C[C@@H](O)c1cccnc1)C1Cc2cc(Cl)c(Cl)cc2C1 [compound 22, N-(5,6-dichloroindan-2-yl)-N-[(2S)-2-hydroxy-2-(3-pyridyl)ethyl]propanamide] | 100 to 1000 nM |
| CCC(=O)N(C[C@H](O)c1cccnc1)C1Cc2cc(Cl)c(Cl)cc2C1 [compound 23, N-(5,6-dichloroindan-2-yl)-N-[(2R)-2-hydroxy-2-(3-pyridyl)ethyl]propanamide] | ≤ 100 nM |
| CCCN(C[C@@H](O)c1cccnc1)C(=O)Cc1ccc(Cl)c(C#N)c1 [compound 24, 2-(4-chloro-3-cyano-phenyl)-N-[(2S)-2-hydroxy-2-(3-pyridyl)ethyl]-N-propyl-acetamide] | 100 to 1000 nM |
| O=C(Cc1ccc(Cl)c(Cl)c1)N(CC1COC1)C[C@@H](O)c1cccnc1 [compound 25, 2-(3,4-dichlorophenyl) -N-[(2S)-2-hydroxy-2-(3-pyridyl)ethyl]-N-(oxetan-3-ylmethyl)acetamide] | 100 to 1000 nM |
| O=C(Cc1ccc(Cl)c(Cl)c1)N(C[C@@H](O)c1cccnc1)C1COC1 [compound 26, 2-(3,4-dichlorophenyl) -N-[(2S)-2-hydroxy-2-(3-pyridyl)ethyl]-N-(oxetan-3-yl)acetamide] | 100 to 1000 nM |
| CC1(CN(C[C@@H](O)c2cccnc2)C(=O)Cc2ccc(Cl)c(Cl)c2)CC1 [compound 27, 2-(3,4-dichlorophenyl) -N-[(2S)-2-hydroxy-2-(3-pyridyl)ethyl]-N-[(1-methylcyclopropyl)methyl]acetamide] | ≤ 100 nM |
| COC(=O)N(CCc1ccc(C(F)(F)F)nc1)CC(O)c1cccnc1 (centres unmarked) [compound 28, methyl N-[2-hydroxy-2-(3-pyridyl)ethyl]-N-[2-[6-(trifluoromethyl)-3-pyridyl]ethyl]carbamate] | > 1000 nM |
| CC(C)N(C[C@@H](O)c1cccnc1)C(=O)Nc1ccc(Cl)c(Cl)c1 [compound 29, 3-(3,4-dichlorophenyl)-1-[(2S)-2-hydroxy-2-(3-pyridyl)ethyl]-1-isopropyl-urea] | > 1000 nM |
| CCCN(CC(O)c1cccnc1)C(=O)Cc1ccc(Cl)cc1F (centres unmarked) [compound 31, 2-(4-chloro-2-fluoro-phenyl)-N-[2-hydroxy-2-(3-pyridyl)ethyl]-N-propyl-acetamide] | ≤ 100 nM |
